According to patent US20150258059A1, “ANTIMICROBIAL AND RADIOPROTECTIVE COMPOUNDS” (BioDiem, Ltd, priority 2001, published 2015):
≈ marks a conversion by molar mass, not a printed value. Where two headings read alike, the source gives them in different places.

What was measured:
Acinetobacter B-681 = experiment: Sensitivity of strains: suppression of growth; type: cell-based; conditions: Compound (1) 1.0%; antibiotics disc method
Klebsiella pneumoniae [1] = experiment: Agar plug diffusion, zone of retardation; conditions: plug impregnated at 0.5%
Rhizopus stolonifer = experiment: microbe, parasite or virus in culture; type: cell-based; conditions: for MIC: Rhizopus stolonifer
[2] = system: C. guillermondii RMIT 176; experiment: M38-P microdilution MIC/MFC; type: cell-based; conditions: Table 16, 24 h, 35° C.
Candida albicans = experiment: Rate of kill, viable counts
Rhizopus stoloniefer = experiment: M38-P microdilution MIC/MFC; type: cell-based; conditions: Table 16, 48 h, 35° C.
[3] = system: Conditional pathogenic enterobacteria gram-negative aerobic bacilli; type: cell-based; note: key: + sensitive strains; + moderately sensitive strains; − stable strains
Bacillus subtilis [4] = experiment: Rate of kill, viable counts; conditions: in 2 h
Klebsiella pneumoniae [5] = experiment: NCCLS broth microdilution MIC/MBC; type: cell-based; conditions: for MIC: Klebsiella pneumoniae
Pseudoallescheria boydii = experiment: M38-P microdilution MIC/MFC; type: cell-based; conditions: Table 16, Dematiaceous fungi
[6] = system: Salmonella paratyphi M-16469; experiment: Sensitivity of strains: suppression of growth; type: cell-based; conditions: Compound (1) 1.0%; antibiotics disc method
Bacillus subtilis [7] = experiment: Stability of stock solutions on storage, potency by MIC/MBC; type: cell-based
Escherichia coli B-683 = experiment: Sensitivity of strains: suppression of growth; type: cell-based; conditions: Compound (1) 1.0%; antibiotics disc method
Acinetobacter B-677 = experiment: Sensitivity of strains: suppression of growth; type: cell-based; conditions: Compound (1) 1.0%; antibiotics disc method
Epidermophyton floccosum = experiment: M38-P microdilution MIC/MFC; type: cell-based; conditions: Table 16, Dermatophytes
[8] = system: skin wounds infected by Streptococcus and Staphylococcus; experiment: Treatment of infected wounds, human volunteers; type: in vivo; conditions: 0.1% ointment for 3 days
Description: Human volunteers suffering from skin wounds infected by Streptococcus and Staphylococcus were treated with 0.1% Compounds (1) and (2) in an ointment base of vaseline, sheep fat, and sulfoxide.

Geotrichum M-158 = experiment: Sensitivity of pathogenic fungi; type: cell-based; conditions: Inoculation 10^5
Clostridium perfringens = experiment: microbe, parasite or virus in culture; type: cell-based; conditions: 48 h
[9] = system: Salmonella typhimurium museum strain 727; experiment: Impregnated agar serial double dilutions; conditions: meat peptone agar
[10] = system: Enterobacter aerogenes B-687; experiment: Sensitivity of strains: suppression of growth; type: cell-based; conditions: Compound (1) 1.0%; antibiotics disc method
Bacillus subtilis RMIT = experiment: NCCLS broth microdilution MIC/MBC; type: cell-based; conditions: for MIC: Bacillus subtilis
Cryptococcus neoformans = experiment: M38-P microdilution MIC/MFC; type: cell-based; conditions: Cryptococcus neoformans, Table 16, 24 h, 35° C., read-out: MIC
[11] = system: Enterococcus faecalis museum strain; experiment: Impregnated agar serial double dilutions; conditions: meat peptone agar
Staphylococcus aureus = experiment: Rate of kill, viable counts
[12] = system: clinical isolate of Trichomonas vaginalis; experiment: microbe, parasite or virus in culture; type: cell-based
Enterococcus faecalis = experiment: Agar plug diffusion, zone of retardation; conditions: plug impregnated at 0.5%
[13] = stock 512 μg/mL stored 4° C., 0 weeks
[14] = stock 512 μg/mL stored 4° C., 2 weeks
[15] = stock 512 μg/mL stored 4° C., 4 weeks
[16] = stock 512 μg/mL stored 4° C., 6 weeks
[17] = stock 512 μg/mL stored 4° C., 8 weeks
[18] = stock 512 μg/mL stored 4° C., 10 weeks
[19] = stock 512 μg/mL stored 4° C., 12 weeks
[20] = stock 512 μg/mL stored RT, 0 weeks
[21] = stock 512 μg/mL stored RT, 2 weeks
[22] = stock 512 μg/mL stored RT, 4 weeks
[23] = stock 512 μg/mL stored RT, 6 weeks
[24] = stock 512 μg/mL stored RT, 8 weeks
[25] = stock 512 μg/mL stored RT, 10 weeks
[26] = stock 512 μg/mL stored RT, 12 weeks
[27] = stock 512 μg/mL stored −20° C., 0 weeks
[28] = stock 512 μg/mL stored −20° C., 2 weeks
[29] = stock 512 μg/mL stored −20° C., 4 weeks
[30] = stock 512 μg/mL stored −20° C., 6 weeks
[31] = stock 512 μg/mL stored −20° C., 8 weeks
[32] = stock 512 μg/mL stored −20° C., 10 weeks
[33] = stock 512 μg/mL stored −20° C., 12 weeks

C/C(=C\c1ccc2c(c1)OCO2)[N+](=O)[O-] [Compound (1)]
Suppression of Growth (+/−) (Acinetobacter B-681): +
Size of zone of retardation of the growth (Klebsiella pneumoniae [1]): 5
MIC (Rhizopus stolonifer; Table 20, […], after 12 weeks continuous exposure, read-out: MIC Final): 16 µg/mL (≈ 77.2 µM)
MIC (Rhizopus stolonifer; Table 20, […], parent strain, read-out: MIC Initial): 4 µg/mL (≈ 19.3 µM)
MIC (Rhizopus stolonifer; before exposure, MHB, read-out: Standard MIC Initial): 4 µg/mL (≈ 19.3 µM)
7-Day MIC Range (Rhizopus stolonifer; to Wk 5): 4-32 to Wk 5 μg/mL
MMC [2]: 2 µg/mL
MIC ([2]; read-out: MIC): 2 µg/mL (≈ 9.65 µM)
Log reduction in viable count (Candida albicans; 128 μg/mL, in 6h): 2 in 6h
Log reduction in viable count (Candida albicans; 256 μg/mL, in 4h): 6 in 4h
Log reduction in viable count (Candida albicans; 512 μg/mL, at 2 h): 5.5 at 2 h
reduction (kill) (Candida albicans; within 2 hrs at 512 μg/mL): > 99.999%
reduction (kill) (Candida albicans; within 4 hours at 256 μg/mL): > 99.999%
MIC (Rhizopus stoloniefer; Rhizopus, read-out: MIC): 4 µg/mL (≈ 19.3 µM)
MMC (Rhizopus stoloniefer): 16 µg/mL
Suppression of Growth (+/−) [3]: +
Log reduction in viable count (Bacillus subtilis [4]; 256 μg/mL): 3.8 in 2 h
Log reduction in viable count (Bacillus subtilis [4]; 512 μg/mL): 4 in 2 h
MIC (Klebsiella pneumoniae [5]; Table 9, 35° C., 24 hours): 512 µg/mL (≈ 2470 µM)
MIC (Klebsiella pneumoniae [5]; Table 17, 2 or 3 replicates): 512 µg/mL (≈ 2470 µM)
MMC (Klebsiella pneumoniae [5]; Table 9, 35° C., 24 hours): >512 µg/mL
MMC (Klebsiella pneumoniae [5]; Table 17, 2 or 3 replicates): >512 µg/mL
MMC (Pseudoallescheria boydii): 4 µg/mL
MIC (Pseudoallescheria boydii; read-out: MIC): 2 µg/mL (≈ 9.65 µM)
Suppression of Growth (+/−) [6]: +
stability of dilute solutions on storage (Bacillus subtilis [7]; 12 weeks at 4° C. and −20° C.): very stable
MBC (Bacillus subtilis [7]; [13]): 8 µg/mL (≈ 38.6 µM)
MIC (Bacillus subtilis [7]; [13]): 4 µg/mL (≈ 19.3 µM)
MBC (Bacillus subtilis [7]; [14]): 8 µg/mL (≈ 38.6 µM)
MIC (Bacillus subtilis [7]; [14]): 4 µg/mL (≈ 19.3 µM)
MBC (Bacillus subtilis [7]; [15]): 16 µg/mL (≈ 77.2 µM)
MIC (Bacillus subtilis [7]; [15]): 4 µg/mL (≈ 19.3 µM)
MBC (Bacillus subtilis [7]; [16]): 16 µg/mL (≈ 77.2 µM)
MIC (Bacillus subtilis [7]; [16]): 4 µg/mL (≈ 19.3 µM)
MBC (Bacillus subtilis [7]; [17]): 16 µg/mL (≈ 77.2 µM)
MIC (Bacillus subtilis [7]; [17]): 4 µg/mL (≈ 19.3 µM)
MBC (Bacillus subtilis [7]; [18]): 16 µg/mL (≈ 77.2 µM)
MIC (Bacillus subtilis [7]; [18]): 4 µg/mL (≈ 19.3 µM)
MBC (Bacillus subtilis [7]; [19]): 16 µg/mL (≈ 77.2 µM)
MIC (Bacillus subtilis [7]; [19]): 4 µg/mL (≈ 19.3 µM)
MBC (Bacillus subtilis [7]; [20]): 8 µg/mL (≈ 38.6 µM)
MIC (Bacillus subtilis [7]; [20]): 4 µg/mL (≈ 19.3 µM)
MBC (Bacillus subtilis [7]; [21]): 8 µg/mL (≈ 38.6 µM)
MIC (Bacillus subtilis [7]; [21]): 4 µg/mL (≈ 19.3 µM)
MBC (Bacillus subtilis [7]; [22]): 8 µg/mL (≈ 38.6 µM)
MIC (Bacillus subtilis [7]; [22]): 4 µg/mL (≈ 19.3 µM)
MBC (Bacillus subtilis [7]; [23]): 16 µg/mL (≈ 77.2 µM)
MIC (Bacillus subtilis [7]; [23]): 4 µg/mL (≈ 19.3 µM)
MBC (Bacillus subtilis [7]; [24]): 16 µg/mL (≈ 77.2 µM)
MIC (Bacillus subtilis [7]; [24]): 8 µg/mL (≈ 38.6 µM)
MBC (Bacillus subtilis [7]; [25]): 16 µg/mL (≈ 77.2 µM)
MIC (Bacillus subtilis [7]; [25]): 8 µg/mL (≈ 38.6 µM)
MBC (Bacillus subtilis [7]; [26]): 16 µg/mL (≈ 77.2 µM)
MIC (Bacillus subtilis [7]; [26]): 8 µg/mL (≈ 38.6 µM)
MBC (Bacillus subtilis [7]; [27]): 8 µg/mL (≈ 38.6 µM)
MIC (Bacillus subtilis [7]; [27]): 4 µg/mL (≈ 19.3 µM)
MBC (Bacillus subtilis [7]; [28]): 8 µg/mL (≈ 38.6 µM)
MIC (Bacillus subtilis [7]; [28]): 4 µg/mL (≈ 19.3 µM)
MBC (Bacillus subtilis [7]; [29]): 16 µg/mL (≈ 77.2 µM)
MIC (Bacillus subtilis [7]; [29]): 4 µg/mL (≈ 19.3 µM)
MBC (Bacillus subtilis [7]; [30]): 16 µg/mL (≈ 77.2 µM)
MIC (Bacillus subtilis [7]; [30]): 4 µg/mL (≈ 19.3 µM)
MBC (Bacillus subtilis [7]; [31]): 16 µg/mL (≈ 77.2 µM)
MIC (Bacillus subtilis [7]; [31]): 4 µg/mL (≈ 19.3 µM)
MBC (Bacillus subtilis [7]; [32]): 16 µg/mL (≈ 77.2 µM)
MIC (Bacillus subtilis [7]; [32]): 4 µg/mL (≈ 19.3 µM)
MBC (Bacillus subtilis [7]; [33]): 16 µg/mL (≈ 77.2 µM)
MIC (Bacillus subtilis [7]; [33]): 4 µg/mL (≈ 19.3 µM)
Suppression of Growth (+/−) (Escherichia coli B-683): +
Suppression of Growth (+/−) (Acinetobacter B-677): +
MIC (Epidermophyton floccosum; Epidermophyton floccosum): 0.5 µg/mL (≈ 2.41 µM)
MMC (Epidermophyton floccosum): 16 µg/mL
clearing of infected wound [8]: cleared the wound completely of pus
Number of microbes: Growth (Geotrichum M-158; 0.1%): 0
Number of microbes: Retardation (Geotrichum M-158; 0.1%): 10^4
Number of microbes: Growth (Geotrichum M-158; 0.5%): 0
Number of microbes: Retardation (Geotrichum M-158; 0.5%): 10^5
Number of microbes: Growth (Geotrichum M-158; 2.0%): 0
Number of microbes: Retardation (Geotrichum M-158; 2.0%): 10^5
MIC (Clostridium perfringens; Clostridium perfringens): 16 µg/mL (≈ 77.2 µM)
MMC (Clostridium perfringens; Table 9): 32 µg/mL
Minimal % Compound (1) giving complete inhibition of test culture [9]: 0.5%
Suppression of Growth (+/−) [10]: +
MIC (Bacillus subtilis RMIT; Table 9, 35° C., 24 hours): 16 µg/mL (≈ 77.2 µM)
MIC (Bacillus subtilis RMIT; Table 17, 2 or 3 replicates): 16 µg/mL (≈ 77.2 µM)
MMC (Bacillus subtilis RMIT; Table 9, 35° C., 24 hours): 16 µg/mL
MMC (Bacillus subtilis RMIT; Table 17, 2 or 3 replicates): 16 µg/mL
MIC (Cryptococcus neoformans): 1 µg/mL (≈ 4.83 µM)
Minimal % Compound (1) giving complete inhibition of test culture [11]: 0.015%
Log reduction in viable count (Staphylococcus aureus; 256 μg/mL, in 6 h): 0.5 in 6 h
Log reduction in viable count (Staphylococcus aureus; 512 μg/mL, in 9 h): 4 in 9 h
MMC [12]: 4 µg/mL
MIC ([12]; Trichomonas vaginalis, 24 h): 4 µg/mL (≈ 19.3 µM)
Size of zone of retardation of the growth (Enterococcus faecalis): 6
